Key:
InsR = molecular target: T1, InsR (Homo sapiens, UniProt P06213); assay: Tyrosine kinase assay (Kinase-Glo or AlphaScreen), InsR; conditions: biochemical tyrosine kinase assay
T1 construct: 6×His- or GST-tagged kinase domain fragments of the corresponding RTKs expressed in baculovirus system; host or cells: baculovirus system
Outline: (§1)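 Recombinant His- or GST-tagged kinase domains from baculovirus were assayed with poly(Glu-Tyr, 4:1) substrate and 10 μM ATP in Tris-HCl pH 7.5 with Mg2+/Mn2+. Kinase-Glo: 37° C for 60 minutes, residual ATP read by luminescence. IC50 from non-linear regression over eight concentrations, 1 nM to 20 μM.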

H929 (multiple myeloma) = assay: Cell proliferation inhibition, Cell Titer-Glo, H929; format: cell-based; conditions: Homo sapiens, NCI-H929; cell proliferation assay, H929 cells
Outline: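 Cells seeded at 2500-5000 per well with serially diluted compound for typically 3 days. Viable cells measured by ATP luminescence (Cell Titer-Glo); IC50 from proliferation-inhibition curves.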

[1] = tested on: CHO (chinese hamster ovary); assay: Cell proliferation inhibition, Cell Titer-Glo, CHO; format: cell-based; conditions: Cricetulus griseus; cell proliferation assay, CHO cells
Protocol: (§2) IGF1R and other tyrosine kinase inhibitors can inhibit the proliferation of certain cancer cell lines indicating their possible therapeutic utility for treating the corresponding cancer types. Cancer cell lines of interest and control normal lines, including CHO, HEK293, BA/F3, MM1, H929, COLO205, PC3, DU145, MCF7, Panc1, ACHN, Hep G2, H460, K562, TT, U87-G, CAOV-3, SK-MEL5, Karpas 299, are plated in white, clear-bottomed 384-well cell culture plates at 2500-5000 cells per well and supplied with dilutions of tested compounds After a desired period of time (typically 3 days), the number of viable cells is quantitated by using Cell Titer-Glo Luminescent Cell Viability Assay (Promega), a cell proliferation assay system based on detection of total amount of ATP present as a measure of cell metabolic activity. The plated cells are mixed with the Cell Titer-Glo developing reagent and counted in a luminescence multiwell plate reader according to the standard manufacturer's protocol to generate IC50 curves for cell proliferation inhibition.
(§3) IGF1R and other tyrosine kinase inhibitors can inhibit the proliferation of certain cancer cell lines indicating their possible therapeutic utility for treating the corresponding cancer types. Cancer cell lines of interest and control normal lines, including CHO, HEK293, BA/F3, COLO205, PC3, DU145, MCF7, Panc1, ACHN, Hep G2, H460, K562, TT, U87-MG, CAOV-3, SK-MEL5, Karpas 299 and human multiple myeloma cell lines H929, MM1s, MM1r, UTMC2, CPM2, KMS11, My5, KMS12PE, My7, JJN3, KMS18, U266, SKMM2, RPMI-8226 are plated in white, clear-bottomed 384-well cell culture plates at 2500-5000 cells per well and supplied with dilutions of tested compounds After a desired period of time (typically 3 days), the number of viable cells is quantitated by using Cell Titer-Glo Luminescent Cell Viability Assay (Promega), a cell proliferation assay system based on detection of total amount of ATP present as a measure of cell metabolic activity. The plated cells are mixed with the Cell Titer-Glo developing reagent and counted in a luminescence multiwell plate reader according to the standard manufacturer's protocol to generate IC50 curves for cell proliferation inhibition. Results are typically reported as percent of growth (% viability =(OD72h(compound)−ODday0))/(OD72h(no compound)−ODday0). Alternatively, viable cells are quantitated by using the conventional colorimetric MTT assay. The MTT assay is based on the cleavage of the yellow tetrazolium salt MTT to purple formazan crystal by metabolic active cells. The formazan is then solubilized, and the concentration determined by optical density at 570 nm. The cells plated and incubated with a compound as described above are supplemented with the solution of MTT and incubated for 2-3 hours. The growth medium is removed and dimethyl sulfoxide is added into each well to dissolve the formazan. The absorbance is measured on an ELISA plate reader with a test wavelength of 570 nm and a background subtraction wavelength of 630 nm to obtain sample signal (OD570-OD630). […] The results are reported in terms of IC50 value for a particular compound and a cell line in the standard 3-day proliferation assay using Cell Titer-Glo. […] The results are reported in terms of IC50 value for a particular compound and a cell line in the standard 3-day proliferation assay using MTT assay.

IGF1R tyrosine kinase = molecular target: T2, IGF1R tyrosine kinase (Homo sapiens, UniProt P08069); assay: IGF1R tyrosine kinase assay (Kinase-Glo ATP depletion or PT66/PT100 AlphaScreen); conditions: biochemical tyrosine kinase assay
T2 construct: 6×His- or GST-tagged kinase domain fragments of the corresponding RTKs expressed in baculovirus system; host or cells: baculovirus system
T2 sequence (P08069 999-1274 limits assumed): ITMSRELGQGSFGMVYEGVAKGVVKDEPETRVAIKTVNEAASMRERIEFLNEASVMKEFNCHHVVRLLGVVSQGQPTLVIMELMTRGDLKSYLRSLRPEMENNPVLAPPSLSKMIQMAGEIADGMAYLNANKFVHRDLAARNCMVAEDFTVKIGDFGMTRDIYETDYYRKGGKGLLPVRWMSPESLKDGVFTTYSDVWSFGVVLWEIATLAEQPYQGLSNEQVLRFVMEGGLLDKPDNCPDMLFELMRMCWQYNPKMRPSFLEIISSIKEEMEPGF
Outline: as §1

Jak2 = molecular target: T3, Jak2 (Homo sapiens, UniProt O60674); assay: Tyrosine kinase assay (Kinase-Glo or AlphaScreen), Jak2; conditions: biochemical tyrosine kinase assay
T3 construct: 6×His- or GST-tagged kinase domain fragments of the corresponding RTKs expressed in baculovirus system; host or cells: baculovirus system
T3 sequence (O60674 849-1124 limits assumed, species assumed): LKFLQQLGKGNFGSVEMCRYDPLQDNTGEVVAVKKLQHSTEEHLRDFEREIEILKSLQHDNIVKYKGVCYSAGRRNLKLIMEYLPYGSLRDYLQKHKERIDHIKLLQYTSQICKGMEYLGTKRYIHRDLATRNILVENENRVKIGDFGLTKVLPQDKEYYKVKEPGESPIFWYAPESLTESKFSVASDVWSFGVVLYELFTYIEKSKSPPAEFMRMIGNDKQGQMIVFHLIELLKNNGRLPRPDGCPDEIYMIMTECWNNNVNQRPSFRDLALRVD
Outline: as §1

[2] = tested on: HEK293 (human normal embryonic kidney); assay: Cell proliferation inhibition, Cell Titer-Glo, HEK293; format: cell-based; conditions: cell proliferation assay, HEK293 cells, read-out: HEK 293 IC50
Protocol: as §2, §3

Alk = molecular target: T4, Alk (Homo sapiens, UniProt Q9UM73); assay: Tyrosine kinase assay (Kinase-Glo or AlphaScreen), Alk; conditions: biochemical tyrosine kinase assay
T4 construct: 6×His- or GST-tagged kinase domain fragments of the corresponding RTKs expressed in baculovirus system; host or cells: baculovirus system
T4 sequence (Q9UM73 1116-1392 limits assumed, species assumed): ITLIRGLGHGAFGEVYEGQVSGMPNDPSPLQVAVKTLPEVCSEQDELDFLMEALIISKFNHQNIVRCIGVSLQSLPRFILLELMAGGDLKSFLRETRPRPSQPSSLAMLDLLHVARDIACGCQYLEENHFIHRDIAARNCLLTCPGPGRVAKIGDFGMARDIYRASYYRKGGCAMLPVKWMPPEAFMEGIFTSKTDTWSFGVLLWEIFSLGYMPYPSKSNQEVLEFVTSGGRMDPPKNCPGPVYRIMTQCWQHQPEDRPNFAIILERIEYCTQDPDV
Outline: as §1

Karpas-299 = assay: Cell proliferation inhibition, Cell Titer-Glo, Karpas-299; format: cell-based; conditions: Homo sapiens; cell proliferation assay, Karpas-299 cells
Outline: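 Karpas 299 cells were seeded into white, clear-bottomed 384-well culture plates at 2500-5000 cells per well and exposed to serial dilutions of test compounds for about 3 days. Viable cell numbers were then measured with the Cell Titer-Glo Luminescent Cell Viability Assay (Promega), which detects total ATP, and IC50 values for proliferation inhibition were derived.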

Ba/F3 = assay: Cell proliferation inhibition, Cell Titer-Glo, Ba/F3; format: cell-based; conditions: Mus musculus, BaF3; cell proliferation assay, Ba/F3 cells
Outline: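 Ba/F3 cells were seeded at 2500-5000 cells per well in white, clear-bottomed 384-well culture plates and exposed to serial dilutions of test compounds for 3 days. Cell Titer-Glo Luminescent Cell Viability Assay (Promega) reagent, which measures total ATP as an indicator of metabolic activity, was added. Luminescence was read on a multiwell plate reader to derive IC50 values for inhibition of proliferation.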

K562 = assay: Cell proliferation inhibition, Cell Titer-Glo, K562; format: cell-based; conditions: Homo sapiens; cell proliferation assay, K562 cells
Outline: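 K562 cells were seeded at 2500-5000 cells per well in white, clear-bottomed 384-well culture plates and treated with dilutions of test compounds for typically 3 days. Viable cells were quantified with the Cell Titer-Glo Luminescent Cell Viability Assay (Promega), which measures total ATP, read on a luminescence plate reader to derive IC50 values for proliferation inhibition.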

T1 sequence (P06213 1023-1298 limits assumed, species assumed): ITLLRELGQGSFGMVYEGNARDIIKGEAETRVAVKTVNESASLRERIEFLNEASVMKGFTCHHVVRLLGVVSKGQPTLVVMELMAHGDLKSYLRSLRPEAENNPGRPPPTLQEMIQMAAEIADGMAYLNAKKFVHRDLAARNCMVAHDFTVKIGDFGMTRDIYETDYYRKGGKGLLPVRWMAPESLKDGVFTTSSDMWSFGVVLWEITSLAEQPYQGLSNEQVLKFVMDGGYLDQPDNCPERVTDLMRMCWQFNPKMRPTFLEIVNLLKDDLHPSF

Row | SMILES | IC50 (InsR) [µM] | IC50 (H929 (multiple myeloma)) [µM] | IC50 [1] [µM] | IC50 (IGF1R tyrosine kinase) [µM] | IC50 (Jak2) [µM] | IC50 [2] [µM] | IC50 (Alk) [µM] | IC50 (Karpas-299) [µM] | IC50 (Ba/F3) [µM] | IC50 (K562) [µM]
1 | CN1CCC(N2Cc3cc4[nH]c(-c5c(NC[C@@H](O)COc6ccc7c(c6Cl)OCO7)cc[nH]c5=O)nc4cc3C2=O)CC1 [compound 163] | < 0.5 | 5 to 15 | > 15 | < 0.5 | < 0.5 | 5 to 15 | 0.5 to 5 | – | – | –
2 | Cc1c(OC[C@H](O)CNc2cc[nH]c(=O)c2-c2nc3cc4c(cc3[nH]2)CN(C2CCN(C)CC2)C4=O)ccc2c1OCO2 [compound 169] | < 0.5 | > 15 | > 15 | < 0.5 | < 0.5 | > 15 | 0.5 to 5 | – | – | –
3 | CN1CCC(N2Cc3cc4nc(-c5c(NC[C@@H](O)COc6ccccc6C(F)(F)F)cc[nH]c5=O)[nH]c4cc3C2=O)CC1 [compound 149] | < 0.5 | 0.5 to 5 | > 15 | < 0.5 | < 0.5 | 5 to 15 | < 0.5 | – | – | –
4 | Cc1ccc(F)c(OC[C@H](O)CNc2cc[nH]c(=O)c2-c2nc3cc4c(cc3[nH]2)C(=O)N(C2CCN(C)CC2)C4)c1Cl [compound 147] | < 0.5 | 0.5 to 5 | > 15 | < 0.5 | < 0.5 | > 15 | 5 to 15 | – | – | –
5 | Cc1ccc(OC[C@H](O)CNc2cc[nH]c(=O)c2-c2nc3cc4c(cc3[nH]2)CN(C2CCN(C)CC2)C4=O)c(Br)c1 [compound 166] | < 0.5 | 0.5 to 5 | 5 to 15 | < 0.5 | < 0.5 | > 15 | 0.5 to 5 | – | – | –
6 | CCc1c(OC[C@H](O)CNc2cc[nH]c(=O)c2-c2nc3cc4c(cc3[nH]2)CN(C2CCN(C)CC2)C4=O)ccc2c1OCO2 [compound 162] | < 0.5 | 5 to 15 | 5 to 15 | < 0.5 | < 0.5 | 5 to 15 | 0.5 to 5 | – | – | –
7 | CN1CCC(N2Cc3cc4[nH]c(-c5c(NC[C@@H](O)COc6ccc(F)cc6Br)cc[nH]c5=O)nc4cc3C2=O)CC1 [compound 165] | < 0.5 | 0.5 to 5 | 5 to 15 | < 0.5 | < 0.5 | > 15 | 0.5 to 5 | – | – | –
8 | CC(=N)N1CCC(N2C(=O)c3cc4nc(-c5c(NC[C@@H](O)COc6ccc(C)cc6C)cc[nH]c5=O)[nH]c4cc3C2=O)CC1 [compound 161] | < 0.5 | 5 to 15 | > 15 | < 0.5 | 0.5 to 5 | > 15 | 0.5 to 5 | 5 to 15 | > 15 | > 15
9 | CN1CCC(N2Cc3cc4nc(-c5c(NC[C@@H](O)COc6c(F)cccc6Cl)cc[nH]c5=O)[nH]c4cc3C2=O)CC1 [compound 153] | < 0.5 | 5 to 15 | > 15 | < 0.5 | < 0.5 | – | 5 to 15 | – | – | –
10 | CN1CCC(N2Cc3cc4nc(-c5c(NC[C@@H](O)COc6ccc(F)cc6F)cc[nH]c5=O)[nH]c4cc3C2=O)CC1 [compound 148] | < 0.5 | 5 to 15 | 5 to 15 | < 0.5 | < 0.5 | > 15 | 0.5 to 5 | – | – | –
11 | CN1CCC(N2Cc3cc4[nH]c(-c5c(NC[C@@H](O)COc6c(F)cc(F)cc6Br)cc[nH]c5=O)nc4cc3C2=O)CC1 [compound 164] | < 0.5 | 5 to 15 | 5 to 15 | < 0.5 | < 0.5 | 5 to 15 | 0.5 to 5 | – | – | –
12 | CN1CCC(N2Cc3cc4nc(-c5c(NC[C@@H](O)COc6cc(C(F)(F)F)ccc6Cl)cc[nH]c5=O)[nH]c4cc3C2=O)CC1 [compound 151] | < 0.5 | 5 to 15 | > 15 | < 0.5 | < 0.5 | – | 5 to 15 | – | – | –
13 | CN1CCC(N2Cc3cc4[nH]c(-c5c(NC[C@@H](O)COc6ccccc6Br)cc[nH]c5=O)nc4cc3C2=O)CC1 [compound 167] | < 0.5 | 0.5 to 5 | > 15 | < 0.5 | < 0.5 | > 15 | 0.5 to 5 | – | – | –
14 | COc1ccc(OC[C@H](O)CNc2cc[nH]c(=O)c2-c2nc3cc4c(cc3[nH]2)CN(C2CCN(C)CC2)C4=O)c(Cl)c1 [compound 146] | < 0.5 | 5 to 15 | > 15 | < 0.5 | < 0.5 | > 15 | 0.5 to 5 | – | – | –
15 | CN1CCC(N2Cc3cc4nc(-c5c(NC[C@@H](O)COc6c(F)ccc(F)c6Cl)cc[nH]c5=O)[nH]c4cc3C2=O)CC1 [compound 155] | < 0.5 | 5 to 15 | > 15 | < 0.5 | < 0.5 | – | 5 to 15 | – | – | –
16 | CN1CCC(N2Cc3cc4[nH]c(-c5c(NC[C@@H](O)COc6cc(F)c(F)cc6Br)cc[nH]c5=O)nc4cc3C2=O)CC1 [compound 168] | < 0.5 | 5 to 15 | > 15 | < 0.5 | < 0.5 | > 15 | 0.5 to 5 | – | – | –
17 | CN1CCC(N2Cc3cc4nc(-c5c(NC[C@@H](O)COc6cc(F)ccc6Cl)cc[nH]c5=O)[nH]c4cc3C2=O)CC1 [compound 150] | < 0.5 | 5 to 15 | > 15 | < 0.5 | < 0.5 | – | 0.5 to 5 | – | – | –
18 | CN1CCC(N2Cc3cc4nc(-c5c(NC[C@@H](O)COc6cc7c(cc6Cl)OCO7)cc[nH]c5=O)[nH]c4cc3C2=O)CC1 [compound 157] | < 0.5 | > 15 | > 15 | < 0.5 | < 0.5 | – | 0.5 to 5 | – | – | –
